From US9187491B2, “Gambogenic acid derivatives, preparation method and application thereof” (Ninth People's Hospital, School Medicine Shanghai Jiao Tong …, priority 2012, dated 2015)
Where two headings read alike, the source gives them in different places.

How the values were obtained:
[1] = tested on: Human breast cancer cells MCF-7; assay: growth inhibition of tumor cell MCF-7 (MTT colorimetric method); type: cell-based; conditions: for efficacy: MCF-7, assessment of results; for inhibition at 100 µM / inhibition at 10 µM / inhibition at 1 µM / inhibition at 0.1 µM / inhibition at 0.01 µM: Homo sapiens, read-out: growth inhibition rate
Text: (§1) The compounds synthesized from the present invention were studied by sulforhodamine B protein staining (sulfothodalnine B, SRB) and miceroculture tetrazolinetetrozohuln (MTT) colorimetric method respectively for in vitro anti-tumor activity (Cancer Res., 1988, 48 (3): 589).
(§2) The concentration gradient of the test compounds of the present invention is 10^−4M, 10^−5M, 10^−6M, 10^−7M, 10^−8M, and the test compounds are 6-methoxy methyl ester gambogenic acid, ethyl ester gambogenic acid, 6-ethoxy ethyl ester gambogenic acid, 6-acyl gambogenic acid, piperidine gambogenic acid, diethylamide gambogenic acyl, morpholine gambogenic acid, and 12-hydroxy gambogenic acid, and 8,9-epoxy gambogenic acid. The test compounds and positive control gambogenic acid were diluted with dimethyl sulfoxide. Inhibition rate(%)=[(control group OD value−administered group OD value)/control group OD value]×100%
Human breast cancer cells MCF-7 were cultured in DMEM containing 10% FBS, the cell with long-growth phase was formed into suspension and cultured in 96-well plates. The test compounds as experimental group with different concentrations were added into each well of the 96-well plates. Blank control group received an equal volume containing the highest concentration of solvent (ie, 10^−4M dimethyl sulfoxide) in DMEM. After incubation at 37° C. under 5% carbon dioxide conditions for 72 hours, each well was added with MTT to 1 mg/ml final concentration for incubation for 4 hours. The supernatant solution in each well was aspirated and added with 200 μl DMSO to dissolve crystals, and then OD values were measured at 490 nm by an automatic plate reader spectrophotometer. A tumor cell group without drugs is a blank control group.

[2] = tested on: Human oral squamous cells carcinoma Cal27; assay: growth inhibition of tumor cell Cal27 (SRB staining); type: cell-based; conditions: for efficacy: Cal27, assessment of results; for inhibition at 100 µM / inhibition at 10 µM / inhibition at 1 µM / inhibition at 0.1 µM / inhibition at 0.01 µM: Homo sapiens, read-out: growth inhibition rate
Text: as §1, §2
Human oral squamous cells carcinoma Cal27 were cultured in DMEM containing 10% fetal bovine serum (FBS), the cells with long-growth phase were forming suspension and culturing in 96-well plates. 10 μl test compounds of different concentrations as experimental group were added into each well of the 96-well plates. Blank control group received an equal volume containing the highest concentration of solvent (ie, 10^−4M dimethyl sulfoxide) in DMEM. After incubation at 37° C. under 5% carbon dioxide conditions for 72 hours, the cells were fixed with trichloroacetic acid, and each well was added with 100 μl SRB solution, unbound SRB was washed away, and then OD values were measured at 550 nm by an automatic plate reader spectrophotometer. A tumor cell group without drugs is a blank control group.

[3] = tested on: mouse leukemia L1210; conditions: compared with garcinia acid; cited from earlier work
[4] = MCF7, MCF-7, 10^−4M, 72 hours, MTT
[5] = MCF7, MCF-7, 10^−5M, 72 hours, MTT
[6] = MCF7, MCF-7, 10^−6M, 72 hours, MTT
[7] = MCF7, MCF-7, 10^−7M, 72 hours, MTT
[8] = MCF7, MCF-7, 10^−8M, 72 hours, MTT
[9] = CAL-27, Cal27, 10^−4M, 72 hours, SRB
[10] = CAL-27, Cal27, 10^−5M, 72 hours, SRB
[11] = CAL-27, Cal27, 10^−6M, 72 hours, SRB
[12] = CAL-27, Cal27, 10^−7M, 72 hours, SRB
[13] = CAL-27, Cal27, 10^−8M, 72 hours, SRB

| Compound | growth inhibition rate ([1]; MCF-7, 10^−4M, 72 hours, MTT) [%] | growth inhibition rate ([1]; MCF-7, 10^−5M, 72 hours, MTT) [%] | growth inhibition rate ([1]; MCF-7, 10^−6M, 72 hours, MTT) [%] | growth inhibition rate ([1]; MCF-7, 10^−7M, 72 hours, MTT) [%] | growth inhibition rate ([1]; MCF-7, 10^−8M, 72 hours, MTT) [%] | efficacy [1] | growth inhibition rate ([2]; Cal27, 10^−4M, 72 hours, SRB) [%] | growth inhibition rate ([2]; Cal27, 10^−5M, 72 hours, SRB) [%] | growth inhibition rate ([2]; Cal27, 10^−6M, 72 hours, SRB) [%] | growth inhibition rate ([2]; Cal27, 10^−7M, 72 hours, SRB) [%] | growth inhibition rate ([2]; Cal27, 10^−8M, 72 hours, SRB) [%] | efficacy [2] | other results |
| --- | --- | --- | --- | --- | --- | --- | --- | --- | --- | --- | --- | --- | --- |
| 6-acyl gambogenic acid | 100 | 100 | 83 | 0 | 0 | potent (Potent: 10^−6M inhibition rate≧75% or 10^−7M inhibition rate>50%) | 100 | 100 | 96 | 0 | 0 | potent (Potent: 10^−6M inhibition rate≧75% or 10^−7M inhibition rate>50%) |  |
| CCOC(=O)/C(C)=C\CC12OC(C)(C)C3CC(C=C4C(=O)c5c(OCC)c(C/C=C(\C)CCC=C(C)C)c(O)c(CC=C(C)C)c5OC431)C2=O (stereo not shown) [6-ethoxy ethyl ester gambogenic acid, 6-ethoxyl gambogenic acid ethyl ester] | 100 | 100 | 86 | 0 | 0 | potent (Potent: 10^−6M inhibition rate≧75% or 10^−7M inhibition rate>50%) | 100 | 100 | 94 | 0 | 0 | potent (Potent: 10^−6M inhibition rate≧75% or 10^−7M inhibition rate>50%) |  |
| COC(=O)/C(C)=C\CC12OC(C)(C)C3CC(C=C4C(=O)c5c(OC)c(C/C=C(\C)CCC=C(C)C)c(O)c(CC=C(C)C)c5OC431)C2=O (stereo not shown) [6-methoxy methyl ester gambogenic acid] | 100 | 100 | 80 | 0 | 0 | potent (Potent: 10^−6M inhibition rate≧75% or 10^−7M inhibition rate>50%) | 100 | 100 | 100 | 0 | 0 | potent (Potent: 10^−6M inhibition rate≧75% or 10^−7M inhibition rate>50%) |  |
| CC(C)=CCC/C(C)=C/Cc1c(O)c(CC=C(C)C)c2c(c1O)C(=O)C13OC1C1CC4C(C)(C)OC(C/C=C(\C)C(=O)O)(CC1=O)C43O2 (stereo not shown) [8,9-epoxy gambogenic acid] |  |  |  |  |  | potent (Potent: 10^−6M inhibition rate≧75% or 10^−7M inhibition rate>50%) |  |  |  |  |  | potent (Potent: 10^−6M inhibition rate≧75% or 10^−7M inhibition rate>50%) | inhibition at 100 µM [1, 4]: 100%; inhibition at 10 µM [1, 5]: 100%; inhibition at 1 µM [1, 6]: 80%; inhibition at 0.1 µM [1, 7]: 0%; inhibition at 0.01 µM [1, 8]: 0%; inhibition at 100 µM [2, 9]: 100%; inhibition at 10 µM [2, 10]: 100%; inhibition at 1 µM [2, 11]: 100%; inhibition at 0.1 µM [2, 12]: 0%; inhibition at 0.01 µM [2, 13]: 0% |
| CC(C)=CCC/C(C)=C/Cc1c(O)c(CC=C(C)C)c2c(c1O)C(=O)C1=CC3CC4C(C)(C)OC(C/C=C(\C)C(=O)O)(CC3O)C14O2 (stereo not shown) [12-hydroxy gambogenic acid] |  |  |  |  |  | potent (Potent: 10^−6M inhibition rate≧75% or 10^−7M inhibition rate>50%) |  |  |  |  |  | potent (Potent: 10^−6M inhibition rate≧75% or 10^−7M inhibition rate>50%) | inhibition at 100 µM [1, 4]: 100%; inhibition at 10 µM [1, 5]: 100%; inhibition at 1 µM [1, 6]: 82%; inhibition at 0.1 µM [1, 7]: 0%; inhibition at 0.01 µM [1, 8]: 0%; inhibition at 100 µM [2, 9]: 100%; inhibition at 10 µM [2, 10]: 100%; inhibition at 1 µM [2, 11]: 100%; inhibition at 0.1 µM [2, 12]: 0%; inhibition at 0.01 µM [2, 13]: 0% |
| CCN(CC)C(=O)/C(C)=C\CC12OC(C)(C)C3CC(C=C4C(=O)c5c(O)c(C/C=C(\C)CCC=C(C)C)c(O)c(CC=C(C)C)c5OC431)C2=O (stereo not shown) [diethylamide gambogenic acyl] | 100 | 100 | 84 | 0 | 0 | potent (Potent: 10^−6M inhibition rate≧75% or 10^−7M inhibition rate>50%) | 100 | 100 | 100 | 23 | 0 | potent (Potent: 10^−6M inhibition rate≧75% or 10^−7M inhibition rate>50%) |  |
| CCOC(=O)/C(C)=C\CC12OC(C)(C)C3CC(C=C4C(=O)c5c(O)c(C/C=C(\C)CCC=C(C)C)c(O)c(CC=C(C)C)c5OC431)C2=O (stereo not shown) [ethyl ester gambogenic acid] | 100 | 100 | 96 | 0 | 0 | potent (Potent: 10^−6M inhibition rate≧75% or 10^−7M inhibition rate>50%) | 100 | 100 | 98 | 0 | 0 | potent (Potent: 10^−6M inhibition rate≧75% or 10^−7M inhibition rate>50%) |  |
| CC(C)=CCC/C(C)=C/Cc1c(O)c(CC=C(C)C)c2c(c1O)C(=O)C1=CC3CC4C(C)(C)OC(C/C=C(/C)C(=O)O)(C3=O)C14O2 (stereo not shown) [gambogenic acid, Gambogenic acid] |  |  |  |  |  | invalid (Invalid: 10^−5M inhibition rate<85%) |  |  |  |  |  | invalid (Invalid: 10^−5M inhibition rate<85%) | highest survival rate extended, relative to garcinia acid [3]: up to 2.45 times; inhibition at 0.01 µM ([1]; MCF7, 72 h): 0%; inhibition at 0.1 µM ([1]; MCF7, 72 h): 0%; inhibition at 1 µM ([1]; MCF7, 72 h): 0%; inhibition at 10 µM ([1]; MCF7, 72 h): 100%; inhibition at 100 µM ([1]; MCF7, 72 h): 100%; inhibition at 0.01 µM ([2]; CAL-27, 72 h): 0%; inhibition at 0.1 µM ([2]; CAL-27, 72 h): 0%; inhibition at 1 µM ([2]; CAL-27, 72 h): 5%; inhibition at 10 µM ([2]; CAL-27, 72 h): 100%; inhibition at 100 µM ([2]; CAL-27, 72 h): 100% |
| CC(C)=CCC/C(C)=C/Cc1c(O)c(CC=C(C)C)c2c(c1O)C(=O)C1=CC3CC4C(C)(C)OC(C/C=C(/C)C(=O)N5CCOCC5)(C3=O)C14O2 (stereo not shown) [morpholine gambogenic acid] | 100 | 100 | 78 | 14 | 0 | potent (Potent: 10^−6M inhibition rate≧75% or 10^−7M inhibition rate>50%) | 100 | 100 | 100 | 14 | 0 | potent (Potent: 10^−6M inhibition rate≧75% or 10^−7M inhibition rate>50%) |  |
| CC(C)=CCC/C(C)=C/Cc1c(O)c(CC=C(C)C)c2c(c1O)C(=O)C1=CC3CC4C(C)(C)OC(C/C=C(/C)C(=O)N5CCCCC5)(C3=O)C14O2 (stereo not shown) [piperidine gambogenic acid] | 100 | 100 | 67 | 0 | 0 | invalid (Invalid: 10^−5M inhibition rate<85%) | 100 | 100 | 70 | 0 | 0 | invalid (Invalid: 10^−5M inhibition rate<85%) |  |
